Test results: publication PMC8021898 (Frontiers in Pharmacology, 2021)
In brackets after ≈: the same amount, converted by molar mass. Several values for one entry are separate records, joined by “and”; a condition that tells them apart may be missing. Equal entries are not always repeated. Where two headings read alike, the source gives them in different places.

Tests used:
[1] = for Css Free drug Concentration (mass/volume) / Css Free drug Concentration (molarity): approximately 20% protein bound
[2] = tested on: SARS-CoV-2; assay: microbe, parasite or virus in culture; type: cell-based; details: for IC50: read-out: Antiviral: IC50; for IC90: read-out: Antiviral: IC90; for inhibition of SARS-CoV-2 infection: Vero E6 cell-based assay
[3] = biological target: human sigma-1 receptor (Homo sapiens, UniProt Q99720); details: concentrations up to 10 μM
Sequence of human sigma-1 receptor (Q99720 whole entry): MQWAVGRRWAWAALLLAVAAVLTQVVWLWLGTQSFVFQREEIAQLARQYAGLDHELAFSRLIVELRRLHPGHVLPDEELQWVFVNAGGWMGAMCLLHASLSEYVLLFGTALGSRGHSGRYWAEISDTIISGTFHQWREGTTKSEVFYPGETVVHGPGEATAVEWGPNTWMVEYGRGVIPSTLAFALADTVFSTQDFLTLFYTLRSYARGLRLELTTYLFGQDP
Description: All reactions were performed in triplicate using a 96-well block. […] Data were analyzed using GraphPad Prism software.

[4] = biological target: human sigma-2 (TMEM97) (Homo sapiens, UniProt Q5BJF2); details: concentrations up to 10 μM
Sequence of human sigma-2 (TMEM97) (Q5BJF2 whole entry): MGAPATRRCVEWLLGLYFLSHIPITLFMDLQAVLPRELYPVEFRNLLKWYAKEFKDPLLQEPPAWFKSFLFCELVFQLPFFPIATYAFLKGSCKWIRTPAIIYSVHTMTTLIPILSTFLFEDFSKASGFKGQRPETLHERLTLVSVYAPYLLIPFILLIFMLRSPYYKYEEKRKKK
Description: Sigma-2 competition curves were performed in a similar manner, using Expi293 cells overexpressing the human sigma-2 (TMEM97) and using [^3H] DTG as the radioactive probe.

[5] = biological target: T1, H2 (Homo sapiens, UniProt P25021); assay: biochemical; details: affinity (Ki) for histamine H2 receptor
T1 sequence (P25021 whole entry): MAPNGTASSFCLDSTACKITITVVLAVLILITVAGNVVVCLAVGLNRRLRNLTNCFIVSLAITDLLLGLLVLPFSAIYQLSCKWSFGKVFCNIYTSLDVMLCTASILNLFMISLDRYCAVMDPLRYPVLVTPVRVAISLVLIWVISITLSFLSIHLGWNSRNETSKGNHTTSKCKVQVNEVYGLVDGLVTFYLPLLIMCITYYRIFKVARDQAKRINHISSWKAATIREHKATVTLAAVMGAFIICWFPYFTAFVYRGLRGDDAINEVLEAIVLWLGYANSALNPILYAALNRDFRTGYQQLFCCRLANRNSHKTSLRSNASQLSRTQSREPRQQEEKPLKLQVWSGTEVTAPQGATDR
Description: Radioligand binding assays with human histamine receptors. Radioligand binding assays with human H1, H2, H3, and H4 receptors were conducted according to the NIMH PDSP assay protocol (https://pdsp.unc.edu/pdspweb/?site=assays) and published procedures ([Besnard et al., 2012]).

[6] = biological target: T1, H2; assay: cell-based
Description: cAMP production was determined in transiently transfected HEK293T cells ([Stauch et al., 2019]) with minor modifications. In brief, HEK293 T cells were co-transfected with H2 and GloSensor cAMP reporter DNA (Promega) overnight and plated in poly-l-lysine coated clear bottom 384-well white plate at a density of 15,000 cells/well in 40 ul of DMEM supplemented with 1% dialyzed FBS for 6 h. Medium was removed and cells were loaded with 3 mM luciferin in drug buffer (20 ul/well, 1x HBSS, 20 mM HEPES, pH 7.40) for 30 min. Test compounds were prepared in the same drug buffer supplemented with 1 mg/ml BSA and added (20 ul/well at 2x) to cells. Luminescence was counted after 20 min and results were analyzed in Prism 8.4.

[7] = tested on: 318 known human GPCRs; details: 10 microM final; threshold >3x basal; follow up studies
Description: (§1) Human G-coupled Protein Receptor genome (GPCRome) screening was carried out according to published procedure ([Kroeze et al., 2015]) with minor modifications. In brief, HTLA cells were subcultured into poly-L-lysine coated clear bottom 384-well white plates at a density of 6,000 cells/well in 40 ul of DMEM supplemented with 1% dialyzed FBS for overnight, transfected with 20 ng/well Tango constructs for 24 h, received drug stimulation (10 uM final) for another 24 h. Medium and drug solutions were removed and Bright-Glo Reagents (Promega) were added for luminescence counting. For concentration response assays, HTLA cells were transfected with Tango constructs for 24 h, plated in poly-L-Lysine coated clear bottom 384-well white plates at a density of 10,000 cells/well in 40 ul of DMEM supplemented with 1% dialyzed FBS for 6 h before receiving drugs for overnight stimulation. Plates were then counted as above.

[8] = biological target: bradykinin receptor B1 (Homo sapiens, UniProt P46663); details: quadruplicate replicate
Sequence of bradykinin receptor B1 (P46663 whole entry): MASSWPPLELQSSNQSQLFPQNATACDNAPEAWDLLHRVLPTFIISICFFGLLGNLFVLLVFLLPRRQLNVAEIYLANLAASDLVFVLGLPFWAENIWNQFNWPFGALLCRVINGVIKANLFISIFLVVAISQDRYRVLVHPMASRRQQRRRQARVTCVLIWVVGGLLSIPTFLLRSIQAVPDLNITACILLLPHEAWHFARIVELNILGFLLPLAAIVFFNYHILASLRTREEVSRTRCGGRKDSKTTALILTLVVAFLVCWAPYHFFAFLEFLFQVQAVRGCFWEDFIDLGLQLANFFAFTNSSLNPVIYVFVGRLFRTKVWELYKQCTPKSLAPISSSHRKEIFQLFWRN
Description: as §1

[9] = biological target: bradykinin receptor B2 (Homo sapiens, UniProt P30411); details: quadruplicate replicate
Sequence of bradykinin receptor B2 (P30411 whole entry): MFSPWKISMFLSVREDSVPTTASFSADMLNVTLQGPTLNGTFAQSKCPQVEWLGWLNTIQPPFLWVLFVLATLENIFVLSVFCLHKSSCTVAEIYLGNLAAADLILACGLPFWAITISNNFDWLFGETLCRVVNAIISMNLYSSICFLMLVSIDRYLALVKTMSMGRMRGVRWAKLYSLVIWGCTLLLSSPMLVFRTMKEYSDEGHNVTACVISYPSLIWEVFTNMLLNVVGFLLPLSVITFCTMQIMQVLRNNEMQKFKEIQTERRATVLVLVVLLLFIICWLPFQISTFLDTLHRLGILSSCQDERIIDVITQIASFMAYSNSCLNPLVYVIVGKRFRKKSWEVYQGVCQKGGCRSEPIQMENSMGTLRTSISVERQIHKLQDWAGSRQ
Description: as §1

[10] = biological target: T2, histamine H2 receptor (Homo sapiens, UniProt P25021); details: partial agonist
T2 sequence (P25021 whole entry): as the sequence (P25021 whole entry) above

[11] = tested on: COVID-19 patient; details: one patient, 60 mg p.o. t.i.d. for 30 days, started day 8 of symptoms; anecdotal
[12] = in vitro; details: African green monkey
[13] = biological target: T2, histamine H2 receptor; assay: cell-based
[14] = biological target: histamine H2 receptor; details: cited from earlier work
[15] = tested on: H2 in primary human neutrophils; details: ref Reher et al., 2012, cited from earlier work
[16] = tested on: H2 in primary human neutrophils; details: ref Reher et al., 2012, cited from earlier work; remark: listed apart in the source
[17] = tested on: H2 in primary human eosinophils; details: ref Reher et al., 2012, cited from earlier work
[18] = tested on: human skin mast cells; details: 10 μM pre-incubation; ref Lippert et al., 2004; cited from earlier work
[19] = tested on: hospitalized COVID-19 patients; details: ref Cheung et al., 2020, Shoaibi et al., Yeramaneni et al.; cited from earlier work
[20] = MTT cytotoxicity assay in uninfected Vero E6 cells; details: African green monkey, uninfected Vero E6 cells
[21] = tested on: Vero E6 cells; assay: MTT cytotoxicity assay in uninfected Vero E6 cells; details: uninfected Vero E6, MTT
[22] = Severe acute respiratory syndrome coronavirus 2, Vero C1008, Vero E6, 48 h, MOI 0.025
[23] = 40 mg tablet p.o. t.i.d., pK data reported by Lin et al. (1987)
[24] = 40 mg tablet p.o. t.i.d., pK data reported by Yeh et al. (1987)
[25] = Severe acute respiratory syndrome coronavirus 2, Vero C1008, 48 h

Structure (SMILES): CN/C(=N/CCSCc1nc[nH]c1C)NC#N [Cimetidine]
- Css Free drug Concentration (mass/volume) ([1]; 200 mg tablet p.o. q.d.): 140 µg/L
- Css Free drug Concentration (mass/volume) ([1]; 300 mg tablet p.o. q.d.): 180.1 µg/L
- Css Free drug Concentration (molarity) ([1]; 300 mg tablet p.o. q.d.): 720 nM

Structure (SMILES): NC(N)=Nc1nc(CSCCC(N)=NS(N)(=O)=O)cs1 [Famotidine]
- IC50 [2, 22]: > 100000 nM
- IC90 [2, 22]: > 100000 nM
- inhibition of SARS-CoV-2 infection [2]: no inhibition
- displacement of radioligand probe, sigma-1 [3]: no detectable displacement
- displacement of radioligand probe, sigma-2 [4]: no detectable displacement
- Ki [5]: ~14 nM and 14 nM
- EC50 [6]: 33 nM
- activity on H2 in the presence of histamine ([6]; Figure 4B): antagonist activity
- inverse agonist activity, reduction of basal activity ([6]; cAMP, H2): 75%
- agonist activity at GPCRs other than H2 [7]: no agonist activity
- activation of bradykinin receptor B1 [8]: no activation
- activation of bradykinin receptor B2 [9]: no activation
- arrestin recruitment efficacy [10]: about 15 % that of histamine
- Css Free drug Concentration (mass/volume) ([1]; 20 mg capsule p.o. b.i.d.): 29.4 µg/L
- Css Free drug Concentration (molarity) ([1]; 20 mg capsule p.o. b.i.d.): 87 nM
- Css Free drug Concentration (mass/volume) ([1]; 20 mg capsule p.o. q.d.): 14.7 µg/L
- Css Free drug Concentration (molarity) ([1]; 20 mg capsule p.o. q.d.): 44 nM
- Css Free drug Concentration (mass/volume) ([1]; 20 mg capsule p.o. t.i.d.): 44.2 µg/L
- Css Free drug Concentration (molarity) ([1]; 20 mg capsule p.o. t.i.d.): 131 nM
- Css Free drug Concentration (mass/volume) ([1]; 20 mg tablet p.o. b.i.d.): 28.3 µg/L
- Css Free drug Concentration (molarity) ([1]; 20 mg tablet p.o. b.i.d.): 84 nM
- Css Total Concentration (mass/volume) ([1]; 20 mg tablet p.o. q.d.): 53 nM
- Css Free drug Concentration (mass/volume) ([1]; 20 mg tablet p.o. q.d.): 14.2 µg/L
- Css Free drug Concentration (molarity) ([1]; 20 mg tablet p.o. q.d.): 42 nM
- Css Free drug Concentration (mass/volume) ([1]; 20 mg tablet p.o. t.i.d.): 42.5 µg/L
- Css Free drug Concentration (molarity) ([1]; 20 mg tablet p.o. t.i.d.): 126 nM
- Css Free drug Concentration (mass/volume) [1, 23]: 44.3 µg/L
- Css Free drug Concentration (molarity) [1, 23]: 131 nM
- Css Free drug Concentration (mass/volume) [1, 24]: 64.6 µg/L
- Css Free drug Concentration (molarity) [1, 24]: 192 nM
- Css Free drug Concentration (mass/volume) ([1]; 60 mg tablet p.o. t.i.d.): 115.4 µg/L
- Css Free drug Concentration (molarity) ([1]; 60 mg tablet p.o. t.i.d.): 340 nM
- Css Free drug Concentration (mass/volume) ([1]; 120 mg IV every 8 h): 1,032 μg/l
- Css Free drug Concentration (molarity) ([1]; 120 mg IV every 8 h): 874 nM
- clinical symptoms after initiating treatment [11]: relief of symptoms overnight
- CC50 [12]: > 100000 nM
- EC50 [13]: 105 nM
- IC50 ([14]; read-out: IC50 Histamine H2, Concentration (molarity), ref Lin et al., 1987, 1991): 39 nM
- IC50 Histamine H2, Concentration (mass/volume) ([14]; ref Lin et al., 1987, 1991): 0.013 µg/mL (≈ 0.0385 µM)
- IC50 ([15]; read-out: IC50 Neutrophil H2 O2- assay, Concentration (molarity)): 201 nM
- IC50 Neutrophil H2 O2- assay, Concentration (mass/volume) [15]: 0.067 µg/mL (≈ 0.199 µM)
- IC50 ([16]; read-out: IC50 Neutrophil H2 cAMP assay, Concentration (molarity)): 24 nM
- IC50 Neutrophil H2 cAMP assay, Concentration (mass/volume) [16]: 0.008 µg/mL (≈ 0.0237 µM)
- IC50 ([17]; read-out: IC50 Eosinophil H2 cAMP assay, Concentration (molarity)): 158 nM
- IC50 Eosinophil H2 cAMP assay, Concentration (mass/volume) [17]: 0.0536 µg/mL (≈ 0.159 µM)
- effect on histamine-induced cAMP increase [18]: blocks histamine-induced cAMP increase
- effect in more recent retrospective studies [19]: no effect

Structure (SMILES): CCN(CCO)CCCC(C)Nc1ccnc2cc(Cl)ccc12 (stereo not shown) [Hydroxychloroquine]
- IC50 [2, 25]: 1440 nM
- IC90 [2, 25]: 3470 nM
- inhibition of SARS-CoV-2 infection [2]: demonstrated antiviral activity
- CC50 at 48 h [20]: > 20000 nM
- Cytotoxicity: CC10 [21]: 216 nM

Structure (SMILES): CCC(CC)COC(=O)[C@H](C)N[P@](=O)(OC[C@H]1O[C@@](C#N)(c2ccc3c(N)ncnn23)[C@H](O)[C@@H]1O)Oc1ccccc1 [Remdesivir]
- IC50 [2, 25]: 966 nM
- IC90 [2, 25]: 1770 nM
- inhibition of SARS-CoV-2 infection [2]: demonstrated antiviral activity
- CC50 [12]: > 20000 nM
- Cytotoxicity: CC10 [21]: > 20000 nM

Structure (SMILES): NCCc1c[nH]cn1 [histamine]
- stimulation of cAMP production ([6]; N = 2): 20 fold of basal
